Measurements taken from patent US9260439B2, “Dihydropyrrolopyrimidine derivatives” (PFIZER INC., priority 2014, dated 2016).

Each compound was assayed against truncated PI3Kα (p110α/iSH2 p85α) (Homo sapiens (Human), UniProt P42336) (assay: PI3KA_Act fluorescence polarization kinase assay (Ki)). Conditions: 1 mM ATP.
Assay type: biochemical
How it was run: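 p110α/iSH2 p85α (0.5 nM) was reacted with 30 μM sonicated PIP2 in 50 mM HEPES pH 7.4, 150 mM NaCl, 5 mM MgCl2, 1 mM DTT and 0.05% CHAPS for 30 min at room temperature, then stopped with EDTA. PIP3 was detected by fluorescence polarization (GST-Grp1 PH domain/TAMRA-PIP3), and Ki came from a Morrison tight-binding fit.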

Sequence of truncated PI3Kα (p110α/iSH2 p85α) (P42336 whole entry, the tested form may be a part): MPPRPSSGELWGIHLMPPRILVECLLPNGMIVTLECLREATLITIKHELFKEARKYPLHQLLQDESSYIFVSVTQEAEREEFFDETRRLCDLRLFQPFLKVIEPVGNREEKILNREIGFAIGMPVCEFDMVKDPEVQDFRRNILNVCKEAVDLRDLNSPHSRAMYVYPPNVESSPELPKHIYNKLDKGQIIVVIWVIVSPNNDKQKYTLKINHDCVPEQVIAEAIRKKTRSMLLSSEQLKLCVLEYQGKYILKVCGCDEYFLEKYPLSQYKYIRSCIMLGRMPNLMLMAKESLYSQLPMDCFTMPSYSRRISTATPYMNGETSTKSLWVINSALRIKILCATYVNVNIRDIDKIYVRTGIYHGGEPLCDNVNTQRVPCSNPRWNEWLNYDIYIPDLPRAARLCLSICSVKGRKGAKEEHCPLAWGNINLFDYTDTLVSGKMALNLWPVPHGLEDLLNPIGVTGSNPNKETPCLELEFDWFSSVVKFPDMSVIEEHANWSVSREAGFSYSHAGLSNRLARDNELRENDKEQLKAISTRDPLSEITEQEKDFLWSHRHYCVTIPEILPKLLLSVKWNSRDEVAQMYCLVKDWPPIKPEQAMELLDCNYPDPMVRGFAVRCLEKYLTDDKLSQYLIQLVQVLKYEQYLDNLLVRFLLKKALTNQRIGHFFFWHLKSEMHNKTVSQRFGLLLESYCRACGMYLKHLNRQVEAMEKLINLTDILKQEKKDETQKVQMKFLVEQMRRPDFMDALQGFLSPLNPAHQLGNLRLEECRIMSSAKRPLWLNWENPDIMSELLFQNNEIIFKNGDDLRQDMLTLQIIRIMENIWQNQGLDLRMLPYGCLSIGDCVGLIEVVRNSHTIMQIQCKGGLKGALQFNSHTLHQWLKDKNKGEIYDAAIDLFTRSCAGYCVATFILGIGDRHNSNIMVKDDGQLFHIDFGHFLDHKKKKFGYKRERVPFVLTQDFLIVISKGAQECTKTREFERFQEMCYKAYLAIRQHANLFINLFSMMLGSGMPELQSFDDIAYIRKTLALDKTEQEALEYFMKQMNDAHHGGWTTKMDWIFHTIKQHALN

Compound | PI3KA_Act Ki [nM] | Ki [nM]
C[C@@H](O)C(=O)N1CC[C@](C)(N2CCc3c(-c4cnc(N)nc4)nc(N4CCOCC4)nc32)C1 [Example 267, (2R)-1-{(3S)-3-[4-(2-aminopyrimidin-5-yl)-2-(morpholin-4-yl)-5,6-dihydro-7H-pyrrolo[2,3-d]pyrimidin-7-yl]-3-methylpyrrolidin-1-yl}-2-hydroxypropan-1-one] | 0.041 | –
CC1(C(=O)N2CC(N3CCc4c(-c5cnc(N)nc5)nc(N5CCOCC5)nc43)C2)CC1 [Example 245, {3-[4-(2-aminopyrimidin-5-yl)-2-(morpholin-4-yl)-5,6-dihydro-7H-pyrrolo[2,3-d]pyrimidin-7-yl]azetidin-1-yl}(1-methylcyclopropyl) methanone] | 4.212 | –
C[C@H]1COCCN1c1nc(-c2cnc(N)nc2)c2c(n1)N([C@@]1(C)CCN(C(=O)[C@H](N)CF)C1)CC2.Cl [Example 480, (2S)-2-amino-1-[(3S)-3-{4-(2-aminopyrimidin-5-yl)-2-[(3S)-3-methylmorpholin-4-yl]-5,6-dihydro-7H-pyrrolo[2,3-d]pyrimidin-7-yl}-3-methylpyrrolidin-1-yl]-3-fluoropropan-1-one hydrochloride] | <0.018 | –
C[C@]1(N2CCc3c(-c4cnc(N)nc4)nc(N4CCOCC4)nc32)CCN(C(=O)C2CC2)C1 [Example 328, {(3S)-3-[4-(2-aminopyrimidin-5-yl)-2-(morpholin-4-yl)-5,6-dihydro-7H-pyrrolo[2,3-d]pyrimidin-7-yl]-3-methylpyrrolidin-1-yl}(cyclopropyl) methanone] | 0.024 | –
CNC(=O)N1CC[C@](C)(N2CCc3c(-c4cnc(N)nc4)nc(N4CCOCC4)nc32)C1 [Example 216] | 0.124 | –
CC(=O)N1CC[C@@](C)(N2CCc3c(-c4cnc(N)nc4)nc(N4CCOCC4)nc32)C1 [Example 259, 1-{(3R)-3-[4-(2-aminopyrimidin-5-yl)-2-(morpholin-4-yl)-5,6-dihydro-7H-pyrrolo[2,3-d]pyrimidin-7-yl]-3-methylpyrrolidin-1-yl}ethanone] | 0.139 | –
C[C@]1(N2CCc3c(-c4cnc(N)nc4)nc(N4CCOCC4)nc32)CCN(C(=O)[C@H]2CCOC2)C1 [Example 373, {(3S)-3-[4-(2-aminopyrimidin-5-yl)-2-(morpholin-4-yl)-5,6-dihydro-7H-pyrrolo[2,3-d]pyrimidin-7-yl]-3-methylpyrrolidin-1-yl}[(3S)-tetrahydrofuran-3-yl]methanone] | 0.028 | –
C[C@]1(N2CCc3c(-c4cnc(N)nc4)nc(N4CCOCC4)nc32)CCN(C(=O)C(F)(F)CN)C1.Cl [Example 307, 3-amino-1-{(3S)-3-[4-(2-aminopyrimidin-5-yl)-2-(morpholin-4-yl)-5,6-dihydro-7H-pyrrolo[2,3-d]pyrimidin-7-yl]-3-methylpyrrolidin-1-yl}-2,2-difluoropropan-1-one hydrochloride] | <0.018 | –
COCC(=O)N1CC[C@](C)(N2CCc3c(-c4cnc(N)nc4)nc(N4CCOCC4)nc32)C1 [Example 279, 1-{(3S)-3-[4-(2-aminopyrimidin-5-yl)-2-(morpholin-4-yl)-5,6-dihydro-7H-pyrrolo[2,3-d]pyrimidin-7-yl]-3-methylpyrrolidin-1-yl}-2-methoxyethanone] | 0.027 | –
C[C@@]1(N2CCc3c(-c4cnc(N)nc4)nc(N4CCOCC4)nc32)CCN(CC(N)=O)C1 [Example 398, 2-{(3R)-3-[4-(2-aminopyrimidin-5-yl)-2-(morpholin-4-yl)-5,6-dihydro-7H-pyrrolo[2,3-d]pyrimidin-7-yl]-3-methylpyrrolidin-1-yl}acetamide] | 0.411 | –
C[C@H]1COCCN1c1nc(-c2cnc(N)nc2)c2c(n1)N([C@H]1CCN(C(=O)OC3COC3)C1)CC2 [Example 156] | 0.088 | –
C[C@H](O)C(=O)N1CC[C@@](C)(N2CCc3c(-c4cnc(N)nc4)nc(N4CCOCC4)nc32)C1 [Example 270, (2S)-1-{(3R)-3-[4-(2-aminopyrimidin-5-yl)-2-(morpholin-4-yl)-5,6-dihydro-7H-pyrrolo[2,3-d]pyrimidin-7-yl]-3-methylpyrrolidin-1-yl}-2-hydroxypropan-1-one] | 0.074 | –
[2H]C1([2H])CN(c2nc(-c3cnc(N)nc3)c3c(n2)N([C@@]2(C)CCN(C(=O)C4(C)CC4)C2)CC3)CC([2H])([2H])O1 [Example 237] | – | 0.025
CC(C)(C)OC(=O)N1CC[C@@](C)(N2CCc3c(-c4cnc(N)nc4)nc(N4CCOCC4)nc32)C1 [Example 195] | 0.166 | –
C[C@H]1COCCN1c1nc(-c2cnc(N)nc2)c2c(n1)N(C1CN(C(=O)C3(C)CC3)C1)CC2 [Example 458, (3-{4-(2-aminopyrimidin-5-yl)-2-[(3S)-3-methylmorpholin-4-yl]-5,6-dihydro-7H-pyrrolo[2,3-d]pyrimidin-7-yl}azetidin-1-yl)(1-methylcyclopropyl)methanone] | 0.159 | –
C[C@]1(N2CCc3c(-c4cnc(N)nc4)nc(N4CCOCC4)nc32)CCN(C(=O)[C@@](C)(N)C(F)(F)F)C1.Cl [Example 311, (2R)-2-amino-1-{(3S)-3-[4-(2-aminopyrimidin-5-yl)-2-(morpholin-4-yl)-5,6-dihydro-7H-pyrrolo[2,3-d]pyrimidin-7-yl]-3-methylpyrrolidin-1-yl}-3,3,3-trifluoro-2-methylpropan-1-one hydrochloride] | 0.054 | –

Compound | PI3KA_Act Ki [nM] | Ki [nM]
Cn1ccc(C(=O)N2CC[C@](C)(N3CCc4c(-c5cnc(N)nc5)nc(N5CCOCC5)nc43)C2)n1 [Example 391, {(3S)-3-[4-(2-aminopyrimidin-5-yl)-2-(morpholin-4-yl)-5,6-dihydro-7H-pyrrolo[2,3-d]pyrimidin-7-yl]-3-methylpyrrolidin-1-yl}(1-methyl-1H-pyrazol-3-yl)methanone] | 0.022 | –
CNS(=O)(=O)N1CC[C@](C)(N2CCc3c(-c4cnc(N)nc4)nc(N4CCOCC4)nc32)C1 [Example 173] | <0.018 | –
C[C@H]1COCCN1c1nc(-c2cnc(N)nc2)c2c(n1)N(C1CN(C(=O)OC(C)(C)C)C1)CC2 [Example 141] | 0.471 | –
CNC(=O)N1CC(C)(N2CCc3c(-c4cnc(N)nc4)nc(N4CCOCC4)nc32)C1 [Example 250, 3-[4-(2-aminopyrimidin-5-yl)-2-(morpholin-4-yl)-5,6-dihydro-7H-pyrrolo[2,3-d]pyrimidin-7-yl]-N,3-dimethylazetidine-1-carboxamide] | 0.120 | –
CC(N)(CF)C(=O)N1CC[C@](C)(N2CCc3c(-c4cnc(N)nc4)nc(N4CCOCC4)nc32)C1.Cl (stereo partly drawn) [Example 294, 2-amino-1-{(3S)-3-[4-(2-aminopyrimidin-5-yl)-2-(morpholin-4-yl)-5,6-dihydro-7H-pyrrolo[2,3-d]pyrimidin-7-yl]-3-methylpyrrolidin-1-yl}-3-fluoro-2-methylpropan-1-one hydrochloride] | <0.018 | –
CC(C)(C(N)=O)N1CC[C@](C)(N2CCc3c(-c4cnc(N)nc4)nc(N4CCOCC4)nc32)C1 [Example 424, 2-{(3S)-3-[4-(2-aminopyrimidin-5-yl)-2-(morpholin-4-yl)-5,6-dihydro-7H-pyrrolo[2,3-d]pyrimidin-7-yl]-3-methylpyrrolidin-1-yl}-2-methylpropanamide] | 0.321 | –
C[C@]1(N2CCc3c(-c4cnc(N)nc4)nc(N4CCOCC4)nc32)CCN(C(=O)[C@@H]2CCOC2)C1 [Example 374, {(3S)-3-[4-(2-aminopyrimidin-5-yl)-2-(morpholin-4-yl)-5,6-dihydro-7H-pyrrolo[2,3-d]pyrimidin-7-yl]-3-methylpyrrolidin-1-yl}[(3R)-tetrahydrofuran-3-yl]methanone] | 0.027 | –
tert-butyl (cis-3-{4-(2-aminopyrimidin-5-yl)-2-[(3S)-3-methylmorpholin-4-yl]-5,6-dihydro-7H-pyrrolo[2,3-d]pyrimidin-7-yl}cyclobutyl)methylcarbamate [Example 448] | 0.690 | –
CC(=O)N1CC[C@@](C)(N2CCc3c(-c4cnc(N)nc4)nc(N4CCOC[C@@H]4C)nc32)C1 [Example 470, 1-[(3R)-3-{4-(2-aminopyrimidin-5-yl)-2-[(3S)-3-methylmorpholin-4-yl]-5,6-dihydro-7H-pyrrolo[2,3-d]pyrimidin-7-yl}-3-methylpyrrolidin-1-yl]ethanone] | 0.070 | –
C[C@@]1(N2CCc3c(-c4cnc(N)nc4)nc(N4CCOCC4)nc32)CCN(C(=O)CC2CC2)C1 [Example 324, 1-{(3R)-3-[4-(2-aminopyrimidin-5-yl)-2-(morpholin-4-yl)-5,6-dihydro-7H-pyrrolo[2,3-d]pyrimidin-7-yl]-3-methylpyrrolidin-1-yl}-2-cyclopropylethanone] | 0.198 | –
CC1(N2CCc3c(-c4cnc(N)nc4)nc(N4CCOCC4)nc32)CNC1 [Example 199] | 0.151 | –
C[C@H]1COCCN1c1nc(-c2cnc(N)nc2)c2c(n1)N([C@H]1CCN(C(=O)NC(C)(C)C)C1)CC2 [Example 140] | 0.318 | –
[2H]C1([2H])OC([2H])([2H])C([2H])([2H])N(c2nc(-c3cnc(N)nc3)c3c(n2)N([C@@]2(C)CCN(C(=O)OC(C)(C)C)C2)CC3)C1([2H])[2H] [Example 238] | – | < 0.018
CN1CC[C@](C)(N2CCc3c(-c4cnc(N)nc4)nc(N4CCOCC4)nc32)C1 [Example 418, 5-{7-[(3S)-1,3-dimethylpyrrolidin-3-yl]-2-(morpholin-4-yl)-6,7-dihydro-5H-pyrrolo[2,3-d]pyrimidin-4-yl}pyrimidin-2-amine] | 0.320 | –
C[C@]1(N2CCc3c(-c4cnc(N)nc4)nc(N4CCOCC4)nc32)CCN(C(=O)OC2CNC2)C1.Cl [Example 415, azetidin-3-yl (3S)-3-[4-(2-aminopyrimidin-5-yl)-2-(morpholin-4-yl)-5,6-dihydro-7H-pyrrolo[2,3-d]pyrimidin-7-yl]-3-methylpyrrolidine-1-carboxylate hydrochloride] | <0.018 | –
C[C@@]1(N2CCc3c(-c4cnc(N)nc4)nc(N4CCOCC4)nc32)CCN(S(N)(=O)=O)C1 [Example 192] | 0.053 | –
